Results: PubChem BioAssay (NCI)
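Dose response: 5 concentrations. Exposure: 48 h. Format: 96-well plates. Endpoint: linear interpolation; highest concentration if not reached. TGI marks complete inhibition of growth.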

Assays:
Test in all cases: DTP human tumour cell line panel, 48 h
K-562 leukemia = system: K-562 leukemia
HCC-2998 colon = system: HCC-2998 colon
BT-549 breast = system: BT-549 breast
SF-268 CNS = system: SF-268 CNS
MDA-MB-231 breast = system: MDA-MB-231 breast
SK-MEL-2 melanoma = system: SK-MEL-2 melanoma
786-0 renal = system: 786-0 renal
HOP-62 NSCLC = system: HOP-62 NSCLC
U251 CNS = system: U251 CNS
SK-OV-3 ovarian = system: SK-OV-3 ovarian
NCI-H460 lung = system: NCI-H460 lung

`NC(N)=Nc1ccc(CC(N)C(=O)O)cc1` (stereo not given) gave a TGI (K-562 leukemia) of over 12.5 µM, a TGI (HCC-2998 colon) of over 12.5 µM and a TGI (BT-549 breast) of over 12.5 µM. The TGI (SF-268 CNS) was over 12.5 µM, the TGI (MDA-MB-231 breast) was over 12.5 µM and the TGI (SK-MEL-2 melanoma) was over 12.5 µM. The TGI (786-0 renal) was over 12.5 µM, the TGI (HOP-62 NSCLC) was over 12.5 µM and the TGI (U251 CNS) was over 12.5 µM. The TGI (SK-OV-3 ovarian) was over 12.5 µM.
For `O=C1CC(c2ccccc2)n2cccc21` (stereo not given), the TGI (K-562 leukemia) was over 100 µM, the TGI (HCC-2998 colon) was over 100 µM and the TGI (SF-268 CNS) was over 100 µM. It also gave a TGI (MDA-MB-231 breast) of over 100 µM, a TGI (SK-MEL-2 melanoma) of over 100 µM and a TGI (786-0 renal) of over 100 µM. The TGI (HOP-62 NSCLC) was over 100 µM, the TGI (U251 CNS) was over 100 µM and the TGI (SK-OV-3 ovarian) was over 100 µM.
`CCN1CCC(O)(c2ccc(Cl)cc2)C(C(=O)c2ccc(Cl)cc2)C1` (stereo not given) showed a TGI (K-562 leukemia) of over 100 µM, a TGI (HCC-2998 colon) of over 100 µM and a TGI (SF-268 CNS) of over 100 µM. For the same molecule, the TGI (SK-MEL-2 melanoma) was over 100 µM, the TGI (786-0 renal) was over 100 µM and the TGI (U251 CNS) was over 100 µM. For the same molecule, the TGI (SK-OV-3 ovarian) was over 100 µM and the TGI (NCI-H460 lung) was over 100 µM.
Work on `CC1=C(C)Cc2c(O)ccc(O)c2C1` yielded a TGI (K-562 leukemia) of 49.8 µM, a TGI (SF-268 CNS) of 31.8 µM and a TGI (MDA-MB-231 breast) of 44.1 µM. The TGI (HOP-62 NSCLC) was 50.1 µM, the TGI (U251 CNS) was 34.2 µM and the TGI (SK-OV-3 ovarian) was over 100 µM. For the same molecule, the TGI (NCI-H460 lung) was over 100 µM.
With `O=C1c2ccc(O)c(O)c2C(=O)c2c(O)ccc(O)c21` the TGI (K-562 leukemia) was 70.9 µM, the TGI (HCC-2998 colon) was 47.9 µM and the TGI (SF-268 CNS) was over 100 µM. It also gave a TGI (SK-MEL-2 melanoma) of 66.5 µM, a TGI (786-0 renal) of over 100 µM and a TGI (HOP-62 NSCLC) of 65.4 µM. For the same molecule, the TGI (U251 CNS) was over 100 µM, the TGI (SK-OV-3 ovarian) was 72.8 µM and the TGI (NCI-H460 lung) was 49.8 µM.
`C=C1CCC([N+](=O)[O-])[C@](C)(N=O)CC[C@@H]2C1CC2(C)C` (stereo not given in full) showed a TGI (K-562 leukemia) of 79.1 µM, a TGI (BT-549 breast) of 37.1 µM and a TGI (SF-268 CNS) of over 100 µM. For the same molecule, the TGI (786-0 renal) was 42.6 µM, the TGI (HOP-62 NSCLC) was over 100 µM and the TGI (U251 CNS) was 48.2 µM. For the same molecule, the TGI (SK-OV-3 ovarian) was over 100 µM and the TGI (NCI-H460 lung) was 39.6 µM.
`COc1ccc(SCc2cc(OCc3ccccc3)c(OCc3ccccc3)c(OCc3ccccc3)c2)cc1` was tested, and the TGI (K-562 leukemia) was 2.62 µM, the TGI (HCC-2998 colon) was 2.85 µM and the TGI (BT-549 breast) was 4.59 µM. The TGI (SF-268 CNS) was 3.42 µM, the TGI (MDA-MB-231 breast) was 2.7 µM and the TGI (786-0 renal) was 2.89 µM. The TGI (U251 CNS) was 3.22 µM and the TGI (SK-OV-3 ovarian) was 3.18 µM.
`C=C(C)[C@@H]1CCC2=C[C@H](OC2=O)[C@@]2(C)C[C@@H]2C2=CC(C)=C(O2)[C@H]1O` gave a TGI (K-562 leukemia) of over 75 µM, a TGI (HCC-2998 colon) of over 75 µM and a TGI (SF-268 CNS) of over 75 µM. It also gave a TGI (MDA-MB-231 breast) of over 75 µM, a TGI (SK-MEL-2 melanoma) of over 75 µM and a TGI (786-0 renal) of over 75 µM. For the same molecule, the TGI (HOP-62 NSCLC) was over 75 µM, the TGI (U251 CNS) was over 75 µM and the TGI (SK-OV-3 ovarian) was over 75 µM. The TGI (NCI-H460 lung) was over 75 µM.
Work on `CCOC(=O)c1ccc(N=c2sc3ccccc3nc2Nc2ccc(C(=O)OCC)cc2)cc1` yielded a TGI (K-562 leukemia) of over 100 µM, a TGI (HCC-2998 colon) of over 100 µM and a TGI (SF-268 CNS) of over 100 µM. For the same molecule, the TGI (MDA-MB-231 breast) was over 100 µM, the TGI (SK-MEL-2 melanoma) was over 100 µM and the TGI (786-0 renal) was 64.8 µM. It also gave a TGI (HOP-62 NSCLC) of over 100 µM, a TGI (U251 CNS) of over 100 µM and a TGI (SK-OV-3 ovarian) of over 100 µM. The TGI (NCI-H460 lung) was over 100 µM.
Molecule `Nc1nc2c3nc(Nc4ccccc4)sc3nc(=O)n2c2sc(Nc3ccccc3)nc12` has a TGI (K-562 leukemia) of over 100 µM, a TGI (HCC-2998 colon) of over 100 µM and a TGI (SF-268 CNS) of over 100 µM. The TGI (786-0 renal) was over 100 µM, the TGI (HOP-62 NSCLC) was over 100 µM and the TGI (U251 CNS) was over 100 µM. The TGI (SK-OV-3 ovarian) was over 100 µM.
In the case of `O=C(NNC(=S)NC1CCCCC1)c1csc(NC(=S)NC2CCCCC2)n1`, the TGI (HCC-2998 colon) is reported as 14.5 µM, the TGI (BT-549 breast) is reported as 21.1 µM and the TGI (SF-268 CNS) is reported as 26.3 µM. The TGI (MDA-MB-231 breast) was 45.1 µM, the TGI (SK-MEL-2 melanoma) was 33.7 µM and the TGI (786-0 renal) was 19.9 µM. It also gave a TGI (HOP-62 NSCLC) of 35.2 µM, a TGI (U251 CNS) of 20.2 µM and a TGI (SK-OV-3 ovarian) of 28.6 µM.
`COc1cc(CNNC(N)=S)cc(OC)c1OC` showed a TGI (K-562 leukemia) of over 100 µM, a TGI (HCC-2998 colon) of over 100 µM and a TGI (BT-549 breast) of over 100 µM. For the same molecule, the TGI (SF-268 CNS) was over 100 µM, the TGI (MDA-MB-231 breast) was over 100 µM and the TGI (786-0 renal) was over 100 µM. For the same molecule, the TGI (HOP-62 NSCLC) was over 100 µM, the TGI (U251 CNS) was over 100 µM and the TGI (NCI-H460 lung) was over 100 µM.
`Cc1ccc(S(=O)(=O)NNCNC(=O)c2ccccc2)cc1` showed a TGI (K-562 leukemia) of over 100 µM, a TGI (HCC-2998 colon) of over 100 µM and a TGI (BT-549 breast) of over 100 µM. The TGI (SF-268 CNS) was over 100 µM, the TGI (MDA-MB-231 breast) was over 100 µM and the TGI (SK-MEL-2 melanoma) was over 100 µM. For the same molecule, the TGI (786-0 renal) was over 100 µM, the TGI (HOP-62 NSCLC) was over 100 µM and the TGI (U251 CNS) was over 100 µM. For the same molecule, the TGI (SK-OV-3 ovarian) was over 100 µM.
`O=C(O)CN1C(=O)C(Cc2ccc(O)cc2)N=C(c2cccc(O)c2)c2ccccc21` (stereo not given) was tested, and the TGI (K-562 leukemia) was over 100 µM, the TGI (BT-549 breast) was over 100 µM and the TGI (SF-268 CNS) was over 100 µM. For the same molecule, the TGI (MDA-MB-231 breast) was over 100 µM, the TGI (SK-MEL-2 melanoma) was over 100 µM and the TGI (786-0 renal) was over 100 µM. For the same molecule, the TGI (HOP-62 NSCLC) was over 100 µM, the TGI (U251 CNS) was over 100 µM and the TGI (SK-OV-3 ovarian) was over 100 µM. The TGI (NCI-H460 lung) was over 100 µM.
With `Cc1cc(=O)oc2c(CNC(Cc3ccccc3)C(=O)O)c(O)ccc12` (stereo not given) the TGI (K-562 leukemia) was over 100 µM, the TGI (HCC-2998 colon) was over 100 µM and the TGI (SF-268 CNS) was over 100 µM. It also gave a TGI (MDA-MB-231 breast) of over 100 µM, a TGI (SK-MEL-2 melanoma) of over 100 µM and a TGI (786-0 renal) of over 100 µM. It also gave a TGI (HOP-62 NSCLC) of over 100 µM, a TGI (U251 CNS) of over 100 µM and a TGI (SK-OV-3 ovarian) of over 100 µM. For the same molecule, the TGI (NCI-H460 lung) was over 100 µM.
`CC(C)(C)OC(=O)N1C(c2cccnc2)=CC[C@H]2C3CC=C(c4cccnc4)[C@@]3(C)CC[C@@H]21` (stereo not given in full) was tested, and the TGI (K-562 leukemia) was 38.6 µM, the TGI (BT-549 breast) was 16.3 µM and the TGI (SF-268 CNS) was 11.5 µM. The TGI (SK-MEL-2 melanoma) was 8.39 µM, the TGI (786-0 renal) was 16.4 µM and the TGI (HOP-62 NSCLC) was 16.3 µM. The TGI (U251 CNS) was 12 µM, the TGI (SK-OV-3 ovarian) was 15 µM and the TGI (NCI-H460 lung) was 14.1 µM.
For `CCN(CC)C(=O)C(C)n1cc(C)c(=O)[nH]c1=O` (stereo not given), the TGI (K-562 leukemia) was over 100 µM, the TGI (HCC-2998 colon) was over 100 µM and the TGI (SF-268 CNS) was over 100 µM. The TGI (SK-MEL-2 melanoma) was over 100 µM, the TGI (786-0 renal) was over 100 µM and the TGI (HOP-62 NSCLC) was over 100 µM. The TGI (U251 CNS) was over 100 µM and the TGI (NCI-H460 lung) was over 100 µM.
Molecule `CCCC(=O)OC1C(CO)OC(n2cc(F)c(=O)[nH]c2=O)C1F` (stereo not given) has a TGI (BT-549 breast) of over 100 µM, a TGI (SK-MEL-2 melanoma) of over 100 µM and a TGI (786-0 renal) of over 100 µM. It also gave a TGI (HOP-62 NSCLC) of over 100 µM and a TGI (SK-OV-3 ovarian) of over 100 µM.
For `CC1(C)CCC[C@]2(C)[C@H]3[C@H](C#N)c4cc(O)c(O)cc4O[C@@]3(C)CC[C@@H]12`, the TGI (K-562 leukemia) was over 10 µM, the TGI (HCC-2998 colon) was over 10 µM and the TGI (SF-268 CNS) was over 10 µM. It also gave a TGI (MDA-MB-231 breast) of over 10 µM, a TGI (SK-MEL-2 melanoma) of over 10 µM and a TGI (786-0 renal) of over 10 µM. It also gave a TGI (HOP-62 NSCLC) of over 10 µM, a TGI (U251 CNS) of over 10 µM and a TGI (SK-OV-3 ovarian) of over 10 µM. It also gave a TGI (NCI-H460 lung) of over 10 µM.
Work on `Cc1ccc2c(c1)-c1nc(N)c(C#N)c(-c3ccccc3)c1CCS2(=O)=O` yielded a TGI (K-562 leukemia) of over 100 µM, a TGI (HCC-2998 colon) of over 100 µM and a TGI (BT-549 breast) of over 100 µM. It also gave a TGI (SF-268 CNS) of over 100 µM, a TGI (MDA-MB-231 breast) of over 100 µM and a TGI (SK-MEL-2 melanoma) of over 100 µM. The TGI (786-0 renal) was 44.1 µM, the TGI (HOP-62 NSCLC) was over 100 µM and the TGI (U251 CNS) was over 100 µM. It also gave a TGI (NCI-H460 lung) of over 100 µM.
Work on `NC(=S)N/N=C\c1nccc2ccccc12` yielded a TGI (K-562 leukemia) of over 50 µM, a TGI (HCC-2998 colon) of over 68.4 µM and a TGI (BT-549 breast) of 13.9 µM. It also gave a TGI (SF-268 CNS) of 1.47 µM, a TGI (MDA-MB-231 breast) of 35.7 µM and a TGI (SK-MEL-2 melanoma) of over 100 µM. It also gave a TGI (U251 CNS) of over 58.6 µM, a TGI (SK-OV-3 ovarian) of 0.681 µM and a TGI (NCI-H460 lung) of 25.5 µM.
